Here are results for 2 compounds from patent US20030207813A1, “Retroviral protease inhibitor combinations” (priority 1995, published 2003).

Type in all cases: cell-based, HIV-1
The test system of assay [1] is NL4(G48V). Put plainly: Viral isolate resistance assay per Markowitz et al., NL4(G48V). The note with it: Human immunodeficiency virus 1, Table 7. The source says: RF represents the HIV-1 strain HIV-LRF and RFR represents a mixture of resistant strains obtained by selection of RF against the compound of Example 1. […] RFR2 represents a mixture of resistant strains obtained by cloning RFR by three rounds of growth at limiting dilution. […] RFRR represents a mixture of resistant strains obtained by selection of RF against the compounds of Examples 1 and 2 and then cloning by three rounds of growth at limiting dilution. […] SF162 represents the HIV-1 strain SF-162 and SF162R represents a mixture of resistant strains obtained by selection of SF162 against the compound of Example 1. […] 89-959 represents the HIV-1 strain 89-959 and 89-959R represents a mixture of resistant strains obtained by selection of 89-959 against the compound of Example 2. […] NL4 represents the HIV-1 strain HIV-1NL4-3. NL4(G48V) represents a strain having a synthetically generated site-directed mutation in the protease from glycine to valine at amino acid position number 48. NL4(I84V) represents a strain having a synthetically generated site-directed mutation in the protease from isoleucine to valine at amino acid position number 84. NL4(R8Q,M46I) represents a strain having synthetically generated site-directed mutations in the protease from arginine to glutamine at amino acid position number 8 and methionine to isoleucine at amino acid position number 46.

Assay [2] relates to NL4(538/524). The experiment in a line: Viral isolate resistance assay per Markowitz et al., NL4(538/524). As to conditions: Human immunodeficiency virus 1; Table 10; NL4(P22-538) selected against Example 5, 24 passages. An excerpt:
(§1) RF represents the HIV-1 strain HIV-LRF and RFR represents a mixture of resistant strains obtained by selection of RF against the compound of Example 1. RFR comprises a mixture of viral strains having protease genotypes of G48V (14/40 clones); G48V, V82A (18/40 clones); G48V, L90S (2/40 clones); G48V, 154T, V82A (1/40 clones); G48M (1/40 clones); G48V, Q61H (1/40 clones); V13I, G48V (1/40 clones); G48V, F53L, V82A (1/40 clones); and G48V, V82A, C95Y (1/40 clones). RFR2 represents a mixture of resistant strains obtained by cloning RFR by three rounds of growth at limiting dilution. RFR2 comprises a mixture of viral strains having protease genotypes of G48V, V82A (13/15 clones); G17E, G48V, V82A (1/15 clones); and G48V, V82A, N37D, N88D (1/15 clones). RFRR represents a mixture of resistant strains obtained by selection of RF against the compounds of Examples 1 and 2 and then cloning by three rounds of growth at limiting dilution. RFRR comprises a mixture of viral strains having protease genotypes of G48V, 154T, L63P, V82A (7/9 clones); G48V, 154T, L63P, V82A, N88S (1/9 clones); and G48V, 154T, L63P, G73M, V82A (1/9 clones). SF162 represents the HIV-1 strain SF-162 and SF162R represents a mixture of resistant strains obtained by selection of SF162 against the compound of Example 1. SF162R comprises a mixture of viral strains having protease genotypes of M461, F53L, L63P, A71V, N88D (2/3 clones); and M46I, F53L, L63P, A71V, N88D, Q92R (1/3 clones). 89-959 represents the HIV-1 strain 89-959 and 89-959R represents a mixture of resistant strains obtained by selection of 89-959 against the compound of Example 2. 89-959R comprises a mixture of viral strains having protease genotypes of N88S (4/5 clones); and D25N, T26A, D30N, D37N, R41K, G73D, R87K, N88S (1/4 clones). NL4 represents the HIV-1 strain HIV-1NL4-3. NL4(G48V) represents a strain having a synthetically generated site-directed mutation in the protease from glycine to valine at amino acid position number 48. NL4(I84V) represents a strain having a synthetically generated site-directed mutation in the protease from isoleucine to valine at amino acid position number 84. NL4(R8Q,M46I) represents a strain having synthetically generated site-directed mutations in the protease from arginine to glutamine at amino acid position number 8 and methionine to isoleucine at amino acid position number 46. NL4(P22-538) represents a mixture of resistant strains obtained by selection of HIV-1NL4-3 against the compound of Example 10 after 22 passages comprising protease genotypes M46I, L63P, A71V, V82F, I84V (4/10); M46I, L63P, V82F, I84V (3/10); and M46I, A71V, V82F, I84V (3/10). NL4(P37-538) represents resistant strains obtained by selection of HIV-1NL4-3 against the compound of Example 10 after 37 passages comprising protease genotype M46I, L63P, A71V, 184A. NL4(538/524) represents resistant strains obtained by selection of NL4(P22-538) against the compound of Example 5 after 24 passages comprising protease genotype M46I, L63P, A71V, 184A. NL4(538/P7-AG) represents a mixture of resistant strains obtained by selection of NL4(P22-538) against the compound of Example 12 after 7 passages comprising protease genotypes M46I, L63P, A71V, 184A; and V321, V82I. NL4(538/P24-AG) represents resistant strains obtained by selection of NL4(P22-538) against the compound of Example 12 after 24 passages comprising protease genotype M46I, L63P, A71V, 184A. […]

Assay [3] has as its system NL4(538/P7-AG). Put plainly: Viral isolate resistance assay per Markowitz et al., NL4(538/P7-AG). As to conditions: Human immunodeficiency virus 1; Table 10; NL4(P22-538) selected against Example 12, 7 passages.
Source text: as §1

In assay [4] the test system is NL4(P22-538). The experiment in a line: Viral isolate resistance assay per Markowitz et al., NL4(P22-538). As to conditions: Human immunodeficiency virus 1; Table 9; selected against Example 10, 22 passages; read-out: Virus Isolate (EC50 nM) NL4(P22-538).
Source text: as §1

Assay [5] has as its system NL4(P37-538). Put plainly: Viral isolate resistance assay per Markowitz et al., NL4(P37-538). The note with it: Human immunodeficiency virus 1; Table 9; selected against Example 10, 37 passages; read-out: Virus Isolate (EC50 nM) NL4(P37-538). The source says:
RF represents the HIV-1 strain HIV-LRF and RFR represents a mixture of resistant strains obtained by selection of RF against the compound of Example 1. RFR comprises a mixture of viral strains having protease genotypes of G48V (14/40 clones); G48V, V82A (18/40 clones); G48V, L90S (2/40 clones); G48V, 154T, V82A (1/40 clones); G48M (1/40 clones); G48V, Q61H (1/40 clones); V13I, G48V (1/40 clones); G48V, F53L, V82A (1/40 clones); and G48V, V82A, C95Y (1/40 clones). RFR2 represents a mixture of resistant strains obtained by cloning RFR by three rounds of growth at limiting dilution. RFR2 comprises a mixture of viral strains having protease genotypes of G48V, V82A (13/15 clones); G17E, G48V, V82A (1/15 clones); and G48V, V82A, N37D, N88D (1/15 clones). RFRR represents a mixture of resistant strains obtained by selection of RF against the compounds of Examples 1 and 2 and then cloning by three rounds of growth at limiting dilution. RFRR comprises a mixture of viral strains having protease genotypes of G48V, 154T, L63P, V82A (7/9 clones); G48V, 154T, L63P, V82A, N88S (1/9 clones); and G48V, 154T, L63P, G73M, V82A (1/9 clones). SF162 represents the HIV-1 strain SF-162 and SF162R represents a mixture of resistant strains obtained by selection of SF162 against the compound of Example 1. SF162R comprises a mixture of viral strains having protease genotypes of M461, F53L, L63P, A71V, N88D (2/3 clones); and M46I, F53L, L63P, A71V, N88D, Q92R (1/3 clones). 89-959 represents the HIV-1 strain 89-959 and 89-959R represents a mixture of resistant strains obtained by selection of 89-959 against the compound of Example 2. 89-959R comprises a mixture of viral strains having protease genotypes of N88S (4/5 clones); and D25N, T26A, D30N, D37N, R41K, G73D, R87K, N88S (1/4 clones). NL4 represents the HIV-1 strain HIV-1NL4-3. NL4(G48V) represents a strain having a synthetically generated site-directed mutation in the protease from glycine to valine at amino acid position number 48. NL4(I84V) represents a strain having a synthetically generated site-directed mutation in the protease from isoleucine to valine at amino acid position number 84. NL4(R8Q,M46I) represents a strain having synthetically generated site-directed mutations in the protease from arginine to glutamine at amino acid position number 8 and methionine to isoleucine at amino acid position number 46. NL4(P22-538) represents a mixture of resistant strains obtained by selection of HIV-1NL4-3 against the compound of Example 10 after 22 passages comprising protease genotypes M46I, L63P, A71V, V82F, I84V (4/10); M46I, L63P, V82F, I84V (3/10); and M46I, A71V, V82F, I84V (3/10). NL4(P37-538) represents resistant strains obtained by selection of HIV-1NL4-3 against the compound of Example 10 after 37 passages comprising protease genotype M46I, L63P, A71V, 184A. NL4(538/524) represents resistant strains obtained by selection of NL4(P22-538) against the compound of Example 5 after 24 passages comprising protease genotype M46I, L63P, A71V, 184A. NL4(538/P7-AG) represents a mixture of resistant strains obtained by selection of NL4(P22-538) against the compound of Example 12 after 7 passages comprising protease genotypes M46I, L63P, A71V, 184A; and V321, V82I. NL4(538/P24-AG) represents resistant strains obtained by selection of NL4(P22-538) against the compound of Example 12 after 24 passages comprising protease genotype M46I, L63P, A71V, 184A. NLA(P19-003) represents resistant strains obtained by selection of HIV-1^NL4-3 against the compound of Example 9 after 19 passages comprising protease genotype R8K, M46I. NL4(P34-003) represents resistant strains obtained by selection of HIV-1^NL4-3 against the compound of Example 9 after 34 passages comprising protease genotype R8K, M46I, L63P, A71V, L90M.
The viral isolate resistance results summarized in Tables 7-11 were generated according to the assay procedures described by Markowitz et al., Journal of Virology, vol. […]

Molecules are shown by their SMILES.

A word on the EC90: it is the point of the concentration-response curve where the effect stands at 90%. Read a low EC90 as greater potency. The EC50 is the concentration at which the effect is half-maximal. In assay [1], `CC(C)(C)NC(=O)[C@@H]1CC2CCCC[C@@H]2CN1C[C@@H](O)[C@H](Cc1ccccc1)NC(=O)[C@H](CC(N)=O)NC(=O)c1ccc2ccccc2n1` (stereo in doubt) [Example 6, N-tert-Butyl decahydro-2-[2(R)-hydroxy-4-phenyl-3(S)-[[N-(2-quinolylcarbonyl)-L-asparaginyl]amino]butyl]-(4aR,8aS)-isoquinoline-3(S)-carboxamide] returned an EC90 of 150 nM. Besides, the EC50 in assay [2] came to 2400 nM; in assay [3], 2400 nM; in assay [4], 150 nM; in assay [5], 2400 nM.
Take `CC(C)(C)NC(=O)[C@@H]1CN(Cc2cccnc2)CCN1C[C@@H](O)C[C@@H](Cc1ccccc1)C(=O)N[C@H]1c2ccccc2C[C@H]1O` [Example 5, N-(2(R)-Hydroxy-1(S)-indanyl)-2(R)-phenylmethyl-4(S)-hydroxy-5-(1-(4-(3-pyridylmethyl)-2(S)-N′-(t-butylcarboxamido)-piperazinyl))-pentaneamide]: it took 160 nM to reach the 90% level in assay [1] (EC90). The EC50 in assay [2] was 6400 nM; in assay [3] it was 6400 nM; in assay [4], 800 nM; in assay [5], 6400 nM.
